Several values for one entry are separate records, joined by “and”; a condition that tells them apart may be missing. Identical values can stand only once. Toxic doses and inconclusive results are not listed.
Test system: BDF1 mice, P388 leukemia ip, median survival T/C
Assay: NCI In Vivo Anticancer Drug Screen. Data for tumor model P388 Leukemia (intraperitoneal) in B6D2F1 (BDF1) mice
Settings: endpoint: median survival time, higher = longer survival
How it was run: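 Compound-treated tumour-bearing mice were compared with vehicle-treated controls. Survival was recorded, and the value is the treated-group measurement divided by the control-group measurement (T/C).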

[1] = dose: 25.0 mg/kg/injection, schedule: Q04DX003 (ip), vehicle: Klucel (hydroxypropylcellulose) (HPC)
[2] = dose: 50.0 mg/kg/injection, schedule: Q04DX003 (ip), vehicle: Klucel (hydroxypropylcellulose) (HPC)
[3] = dose: 2.5 mg/kg/injection, schedule: Q01DX009 (ip), vehicle: saline
[4] = dose: 50.0 mg/kg/injection, schedule: Q01DX009 (ip), vehicle: saline with Tween-80
[5] = dose: 100.0 mg/kg/injection, schedule: Q01DX009 (ip), vehicle: saline with Tween-80

SMILES: COCc1ccc([N+](=O)[O-])cc1
- T/C (dose: 25.0 mg/kg/injection, schedule: Q01DX001 (ip), vehicle: saline with Tween-80): 101 % of control
- T/C (dose: 50.0 mg/kg/injection, schedule: Q01DX001 (ip), vehicle: saline with Tween-80): 95 % of control
- T/C (dose: 100.0 mg/kg/injection, schedule: Q01DX001 (ip), vehicle: saline with Tween-80): 96 % of control and 107 % of control

SMILES: c1ccc([P+](C[P+](c2ccccc2)(c2ccccc2)c2ccccc2)(c2ccccc2)c2ccccc2)cc1
- T/C (dose: 0.39 mg/kg/injection, schedule: Q01DX009 (ip), vehicle: Klucel (hydroxypropylcellulose) (HPC)): 109 % of control
- T/C (dose: 0.78 mg/kg/injection, schedule: Q01DX009 (ip), vehicle: Klucel (hydroxypropylcellulose) (HPC)): 109 % of control
- T/C (dose: 1.56 mg/kg/injection, schedule: Q01DX009 (ip), vehicle: Klucel (hydroxypropylcellulose) (HPC)): 118 % of control
- T/C (dose: 1.72 mg/kg/injection, schedule: Q04DX003 (ip), vehicle: Klucel (hydroxypropylcellulose) (HPC)): 109 % of control
- T/C (dose: 2.3 mg/kg/injection, schedule: Q01DX009 (ip), vehicle: Klucel (hydroxypropylcellulose) (HPC)): 115 % of control
- T/C (dose: 3.45 mg/kg/injection, schedule: Q04DX003 (ip), vehicle: Klucel (hydroxypropylcellulose) (HPC)): 122 % of control
- T/C (dose: 6.9 mg/kg/injection, schedule: Q04DX003 (ip), vehicle: Klucel (hydroxypropylcellulose) (HPC)): 90 % of control

SMILES: CCCCCCOP(=O)(CCCCCC)OCCCCCC
- T/C (dose: 25.0 mg/kg/injection, schedule: Q01DX009 (ip), vehicle: Klucel (hydroxypropylcellulose) (HPC)): 108 % of control
- T/C [1]: 100 % of control
- T/C (dose: 50.0 mg/kg/injection, schedule: Q01DX009 (ip), vehicle: Klucel (hydroxypropylcellulose) (HPC)): 104 % of control
- T/C [2]: 95 % of control
- T/C (dose: 100.0 mg/kg/injection, schedule: Q01DX009 (ip), vehicle: Klucel (hydroxypropylcellulose) (HPC)): 113 % of control
- T/C (dose: 100.0 mg/kg/injection, schedule: Q04DX003 (ip), vehicle: Klucel (hydroxypropylcellulose) (HPC)): 100 % of control

SMILES: CC1OC(n2ccc(NC(=O)c3ccc(NC(=O)C(C)(N)CO)cc3)nc2=O)CC(O)C1OC1OC(C)C(N(C)C)C(O)C1O (stereo not drawn)
- T/C [3]: 106 % of control
- T/C (dose: 5.0 mg/kg/injection, schedule: Q01DX009 (ip), vehicle: saline): 103 % of control
- T/C (dose: 10.0 mg/kg/injection, schedule: Q01DX009 (ip), vehicle: saline): 111 % of control

SMILES: Clc1ccc(C(c2ccc(Cl)cc2)C(Cl)(Cl)Cl)cc1
- T/C (dose: 12.5 mg/kg/injection, schedule: Q01DX009 (ip), vehicle: saline with Tween-80): 102 % of control
- T/C (dose: 25.0 mg/kg/injection, schedule: Q01DX009 (ip), vehicle: saline with Tween-80): 102 % of control
- T/C [4]: 88 % of control

SMILES: NNC(=O)OC12CC3CC(CC(C3)C1)C2
- T/C (dose: 12.5 mg/kg/injection, schedule: Q04DX003 (ip), vehicle: Klucel (hydroxypropylcellulose) (HPC)): 105 % of control
- T/C [1]: 105 % of control
- T/C [2]: 120 % of control
- T/C (dose: 63.75 mg/kg/injection, schedule: Q01DX001 (ip), vehicle: Klucel (hydroxypropylcellulose) (HPC)): 100 % of control
- T/C (dose: 127.5 mg/kg/injection, schedule: Q01DX001 (ip), vehicle: Klucel (hydroxypropylcellulose) (HPC)): 122 % of control
- T/C (dose: 255.0 mg/kg/injection, schedule: Q04DX003 (ip), vehicle: Klucel (hydroxypropylcellulose) (HPC)): 90 % of control

SMILES: C#CCOCC(CCl)OC(N)=O (stereo not drawn)
- T/C [4]: 110 % of control
- T/C [5]: 114 % of control
- T/C (dose: 100.0 mg/kg/injection, schedule: Q04DX003 (ip), vehicle: saline): 110 % of control
- T/C (dose: 200.0 mg/kg/injection, schedule: Q01DX009 (ip), vehicle: saline with Tween-80): 107 % of control
- T/C (dose: 200.0 mg/kg/injection, schedule: Q04DX003 (ip), vehicle: saline): 120 % of control

SMILES: Nc1c(C(=O)O)[nH]c(=O)[nH]c1=O
- T/C [4]: 113 % of control
- T/C [5]: 219 % of control

SMILES: CC(C)(N)CCC(C)(C)NCCCN
- T/C (dose: 50.0 mg/kg/injection, schedule: Q01DX009 (ip), vehicle: water): 92 % of control
- T/C (dose: 100.0 mg/kg/injection, schedule: Q01DX009 (ip), vehicle: water): 103 % of control
- T/C (dose: 100.0 mg/kg/injection, schedule: Q04DX003 (ip), vehicle: water): 100 % of control
- T/C (dose: 200.0 mg/kg/injection, schedule: Q01DX009 (ip), vehicle: water): 106 % of control
- T/C (dose: 200.0 mg/kg/injection, schedule: Q04DX003 (ip), vehicle: water): 103 % of control
- T/C (dose: 400.0 mg/kg/injection, schedule: Q04DX003 (ip), vehicle: water): 92 % of control

SMILES: O=NN(CCCl)C(=O)Nc1ccc(CCO)cc1
- T/C (dose: 0.12 mg/kg/injection, schedule: Q04DX003 (ip), vehicle: saline): 100 % of control
- T/C (dose: 0.13 mg/kg/injection, schedule: Q01DX009 (ip), vehicle: Klucel (hydroxypropylcellulose) (HPC)): 112 % of control
- T/C (dose: 0.2 mg/kg/injection, schedule: Q01DX009 (ip), vehicle: Klucel (hydroxypropylcellulose) (HPC)): 91 % of control
- T/C (dose: 0.2 mg/kg/injection, schedule: Q01DX009 (ip), vehicle: alcohol): 100 % of control
- T/C (dose: 0.25 mg/kg/injection, schedule: Q04DX003 (ip), vehicle: saline): 104 % of control
- T/C (dose: 0.3 mg/kg/injection, schedule: Q01DX009 (ip), vehicle: alcohol): 108 % of control
- T/C (dose: 0.5 mg/kg/injection, schedule: Q01DX009 (ip), vehicle: alcohol): 150 % of control
- T/C (dose: 0.5 mg/kg/injection, schedule: Q01DX009 (ip), vehicle: other): 181 % of control
- T/C (dose: 0.5 mg/kg/injection, schedule: Q04DX003 (ip), vehicle: saline + alcohol): 155 % of control
- T/C (dose: 0.5 mg/kg/injection, schedule: Q04DX003 (ip), vehicle: saline): 117 % of control
- T/C (dose: 1.0 mg/kg/injection, schedule: Q01DX009 (ip), vehicle: Klucel (hydroxypropylcellulose) (HPC)): 150 % of control
- T/C (dose: 1.0 mg/kg/injection, schedule: Q01DX009 (ip), vehicle: alcohol): 183 % of control
- T/C (dose: 1.0 mg/kg/injection, schedule: Q01DX009 (ip), vehicle: other): 181 % of control
- T/C (dose: 1.0 mg/kg/injection, schedule: Q04DX003 (ip), vehicle: saline + alcohol): 188 % of control
- T/C (dose: 1.65 mg/kg/injection, schedule: Q01DX009 (ip), vehicle: Klucel (hydroxypropylcellulose) (HPC)): 200 % of control
- T/C (dose: 1.65 mg/kg/injection, schedule: Q01DX009 (ip), vehicle: saline): 266 % of control
- T/C (dose: 2.0 mg/kg/injection, schedule: Q01DX009 (ip), vehicle: alcohol): 237 % of control
- T/C (dose: 2.0 mg/kg/injection, schedule: Q01DX009 (ip), vehicle: other): 254 % of control
- T/C (dose: 2.0 mg/kg/injection, schedule: Q04DX003 (ip), vehicle: saline + alcohol): 255 % of control
- T/C (dose: 2.5 mg/kg/injection, schedule: Q01DX009 (ip), vehicle: Klucel (hydroxypropylcellulose) (HPC)): 257 % of control
- T/C (dose: 2.5 mg/kg/injection, schedule: Q01DX009 (ip), vehicle: saline with Tween-80): 240 % of control
- T/C [3]: 333 % of control
- T/C (dose: 3.75 mg/kg/injection, schedule: Q01DX009 (ip), vehicle: Klucel (hydroxypropylcellulose) (HPC)): 289 % of control
- T/C (dose: 3.75 mg/kg/injection, schedule: Q01DX009 (ip), vehicle: saline): 333 % of control
- T/C (dose: 4.0 mg/kg/injection, schedule: Q01DX009 (ip), vehicle: alcohol): 250 % of control
- T/C (dose: 4.0 mg/kg/injection, schedule: Q01DX009 (ip), vehicle: other): 272 % of control
- T/C (dose: 4.0 mg/kg/injection, schedule: Q04DX003 (ip), vehicle: saline + alcohol): 322 % of control
- T/C (dose: 5.0 mg/kg/injection, schedule: Q01DX009 (ip), vehicle: saline with Tween-80): 270 % of control
- T/C (dose: 6.25 mg/kg/injection, schedule: Q01DX009 (ip), vehicle: saline): 180 % of control
- T/C (dose: 6.25 mg/kg/injection, schedule: Q04DX003 (ip), vehicle: saline + alcohol): 272 % of control
- T/C (dose: 10.0 mg/kg/injection, schedule: Q01DX009 (ip), vehicle: saline with Tween-80): 110 % of control
- T/C (dose: 12.5 mg/kg/injection, schedule: Q01DX009 (ip), vehicle: saline): 100 % of control
- T/C (dose: 12.5 mg/kg/injection, schedule: Q04DX003 (ip), vehicle: saline + alcohol): 272 % of control
- T/C (dose: 25.0 mg/kg/injection, schedule: Q04DX003 (ip), vehicle: saline sonified): 90 % of control

SMILES: O=C(Nc1ccc(C2=NCCCN2)cc1)c1ccc(NC(=O)c2ccc(C3=NCCCN3)cc2)cc1
- T/C (dose: 13.2 mg/kg/injection, schedule: Q04DX003 (ip), vehicle: saline with Tween-80): 160 % of control and 168 % of control
- T/C (dose: 20.0 mg/kg/injection, schedule: Q04DX003 (ip), vehicle: saline with Tween-80): 181 % of control and 220 % of control
- T/C (dose: 30.0 mg/kg/injection, schedule: Q04DX003 (ip), vehicle: saline with Tween-80): 263 % of control and 300 % of control
